Experimental data from PubChem BioAssay AID1259411 (Chemical Carcinogenesis Research Information System (CCRIS), 2018).
Calls of active or inactive are those of the source. The rule behind the calls is not given here. *1 amine or outer side, *2 acyl side, *3 side chain or, on linkers, in order; H or OH if unused. Where a SMILES comes first, the peptide text is derived from it. Bridges are numbered along the chain shown (N, C = ends). Roman numbers before positions name the chains, in order. [ ]: non-standard residue; d: D form. Actinocin(9to1) = Cc1c2oc3c(C)ccc(C(=O)[*:1])c3nc-2c(C(=O)[*:2])c(N)c1=O; NMeV = CN[C@H](C(=O)O)C(C)C; Sar = CNCC(=O)O

Test system: rodent carcinogenicity bioassays, tumor incidence
Assay: CCRIS carcinogenicity studies
Summary of the method: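 Archive of carcinogenicity, mutagenicity, tumor promotion and tumor inhibition results drawn from journals, NCI reports and other sources, expert-reviewed; covers 1985-2011 and is no longer updated.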

In the case of `C=CCc1ccc(OC)c(OC)c1`, the carcinogen call (Species: MOUSE, Strain/Sex: B6C3F1/FEMALE, Route: GAVAGE, Dose: 0, 37, 75, 150 MG/KG BW IN 0.5% METHYLCELLULOSE 5 D/WK FOR 105 WK (STUDY DURATION: 105 WK), Dose: 0, 37, 75, 150 MG/KG BW IN 0.5% METHYLCELLULOSE 5 D/WK FOR 105 WK (STUDY DURATION: 105 WK), Tumor Site: Type of Lesion: LIVER: HEPATOCELLULAR ADENOMA, HEPATOCELLULAR CARCINOMA, HEPATOBLASTOMA) is reported as “active; positive”, the carcinogen call (Species: MOUSE, Strain/Sex: B6C3F1/MALE, Route: GAVAGE, Dose: 0, 37, 75, 150 MG/KG BW IN 0.5% METHYLCELLULOSE 5 D/WK FOR 105 WK (STUDY DURATION: 105 WK), Dose: 0, 37, 75, 150 MG/KG BW IN 0.5% METHYLCELLULOSE 5 D/WK FOR 105 WK (STUDY DURATION: 105 WK), Tumor Site: Type of Lesion: LIVER: TUMOR) is reported as “active; positive” and the carcinogen call (Species: RAT, Strain/Sex: F344/N/FEMALE, Route: GAVAGE, Dose: 0, 37, 75, 150 MG/KG BW IN 0.5% METHYLCELLULOSE 5D/WK FOR 105 WK (STUDY DURATION: 105 WK), Dose: 0, 37, 75, 150 MG/KG BW IN 0.5% METHYLCELLULOSE 5D/WK FOR 105 WK (STUDY DURATION: 105 WK), Tumor Site: Type of Lesion: LIVER: HEPATOCELLULAR ADENOMA OR CARCINOMA, GLANDULAR STOMACH: BENIGN OR MALIGNANT NEUROENDOCRINE TUMOR) is reported as “active; positive”. For the same compound, the carcinogen call (Species: RAT, Strain/Sex: F344/N/FEMALE, Route: GAVAGE, Dose: 0, 300 MG/KG BW IN 0.5% METHYLCELLULOSE 5D/WK FOR 52 WK (STUDY DURATION: 105 WK), Tumor Site: Type of Lesion: ADRENAL MEDULLA: BENIGN PHEOCHROMOCYTOMA, LIVER: HEPATOCELLULAR ADENOMA OR CARCINOMA, HEPATOCHOLANGIOMA OR HEPATOCHOLANG) was “active; positive”, the carcinogen call (Species: RAT, Strain/Sex: F344/N/MALE, Route: GAVAGE, Dose: 0, 37, 75, 150 MG/KG BW IN 0.5% METHYLCELLULOSE 5 D/WK FOR 105 WK (STUDY DURATION: 105 WK), Dose: 0, 37, 75, 150 MG/KG BW IN 0.5% METHYLCELLULOSE 5 D/WK FOR 105 WK (STUDY DURATION: 105 WK), Tumor Site: Type of Lesion: LIVER: HEPATOCELLULAR ADENOMA OR CARCINOMA, GLANDULAR STOMACH: MALIGNANT NEUROENDOCRINE TUMOR, KIDNEY: ADENOMA, MAMMARY, Tumor Site: Type of Lesion: LIVER: HEPATOCELLULAR ADENOMA OR CARCINOMA, GLANDULAR STOMACH: MALIGNANT NEUROENDOCRINE TUMOR, KIDNEY: ADENOMA, MAMMARY) was “active; positive” and the carcinogen call (Species: RAT, Strain/Sex: F344/N/MALE, Route: GAVAGE, Dose: 0, 300 MG/KG BW IN 0.5% METHYLCELLULOSE 5 D/WK FOR 52 WK (STUDY DURATION: 105 WK), Tumor Site: Type of Lesion: KIDNEY: RENAL TUBULE ADENOMA OR CARCINOMA, LIVER: HEPATOCELLULAR ADENOMA OR CARCINOMA, HEPATOCHOLANGIOMA OR HEPATOCHOLAN) was “active; positive”.

`N#CC(Br)Br` was tested, and the carcinogen call (Species: Mouse, Strain/Sex: B6C3F1/Female (50/group), Route: Oral, Dose: 0, 50, 100, 200 mg/l in drinking water for 2 yr, Dose: 0, 50, 100, 200 mg/l in drinking water for 2 yr, Tumor Site: Type of Lesion: Forestomach: squamous cell papilloma and squamous cell carcinoma combined (1/50, 0/50, 5/50, 14/50)) was “active; positive (ntp describes as clear evidence)”, the carcinogen call (Species: Mouse, Strain/Sex: B6C3F1/Male (50/group), Route: Oral, Dose: 0, 50, 100, 200 mg/l in drinking water for 2 yr, Dose: 0, 50, 100, 200 mg/l in drinking water for 2 yr, Tumor Site: Type of Lesion: Forestomach: squamous cell papilloma and squamous cell carcinoma combined (0/50, 1/50, 0/50, 5/50). Liver: hepatoblastom) was “active; positive (ntp describes as clear evidence)” and the carcinogen call (Species: Rat, Strain/Sex: F344/N / Female (50/group), Route: Oral, Dose: 0, 50, 100, 200 mg/l in drinking water for 2 yr, Dose: 0, 50, 100, 200 mg/l in drinking water for 2 yr, Tumor Site: Type of Lesion: Oral Cavity (oral mucosa or tongue): squamous cell papilloma (1/50, 0/50, 4/50, 0/50). Skin: squamous cell papilloma, ke) was “active; positive (ntp describes as some evidence)”. The carcinogen call (Species: Rat, Strain/Sex: F344/N / Male (50/group), Route: Oral, Dose: 0, 50, 100, 200 mg/l in drinking water for 2 yr, Dose: 0, 50, 100, 200 mg/l in drinking water for 2 yr, Tumor Site: Type of Lesion: Oral Cavity (oral mucosa or tongue): squamous cell papilloma and carcinoma combined (0/50, 0/50, 2/50, 5/50) (Statistica) was “active; positive (ntp describes as clear evidence)”.

With `CC1CN(N=O)CCO1` (stereo not drawn) the carcinogen call (Species: HAMSTER, Strain/Sex: SYRIAN/MALE, Route: INTRAGASTRIC, Dose: 0, 27 MG/ML IN 0.2 ML STERILIZED WATER 1/WK FOR 30 WK (TOTAL DOSE 162 MG) (STUDY DURATION: LIFESPAN), Tumor Site: Type of Lesion: LIVER: HEMANGIOSARCOMA, NASAL CAVITY: CARCINOMA, LUNG: CARCINOMA, ADENOMA, FORESTOMACH: PAPILLOMA, TRACHEA: ADENOMA, Tumor Site: Type of Lesion: LIVER: HEMANGIOSARCOMA, NASAL CAVITY: CARCINOMA, LUNG: CARCINOMA, ADENOMA, FORESTOMACH: PAPILLOMA, TRACHEA: ADENOMA) was “active; positive”.

With `O=C1c2ccccc2C(=O)N1SC(Cl)(Cl)Cl` the carcinogen call (Species: MOUSE, Strain/Sex: B6C3F1/FEMALE, Route: ORAL, Dose: 0, 1000, 5000, 10000 PPM IN DIET FOR 104 WK (STUDY DURATION: 104 WK), Dose: 0, 1000, 5000, 10000 PPM IN DIET FOR 104 WK (STUDY DURATION: 104 WK), Tumor Site: Type of Lesion: DUODENUM: CARCINOMA OR ADENOMA) was “active; positive”, the carcinogen call (Species: MOUSE, Strain/Sex: B6C3F1/MALE, Route: ORAL, Dose: 0, 1000, 5000, 10000 PPM IN DIET FOR 104 WK (STUDY DURATION: 104 WK), Dose: 0, 1000, 5000, 10000 PPM IN DIET FOR 104 WK (STUDY DURATION: 104 WK), Tumor Site: Type of Lesion: NON-GLANDULAR STOMACH: PAPILLOMA OR SQUAMOUS CELL CARCINOMA, DUODENUM: CARCINOMA OR ADENOMA) was “active; positive” and the carcinogen call (Species: Mouse, Strain/Sex: B6C3F1/Female (52/Group), Route: Oral, Dose: 0, 1000, 5000/3500, 10,000/7000 ppm (doses reduced at wk 21) of 88-89% folpet in diet for 2 yr, study duration 2 yr, Dose: 0, 1000, 5000/3500, 10,000/7000 ppm (doses reduced at wk 21) of 88-89% folpet in diet for 2 yr, study duration 2 yr, Tumor Site: Type of Lesion: Stomach: papilloma and squamous cell carcinoma combined (2, 2, 5, 7). Duodenum: adenomas and carcinomas (1, 2, 10, 19).) was “active; positive”. For the same compound, the carcinogen call (Species: Mouse, Strain/Sex: B6C3F1/Male (52/Group), Route: Oral, Dose: 0, 1000, 5000/3500, 10,000/7000 ppm (doses reduced at wk 21) of 88-89% folpet in diet for 2 yr, study duration 2 yr, Dose: 0, 1000, 5000/3500, 10,000/7000 ppm (doses reduced at wk 21) of 88-89% folpet in diet for 2 yr, study duration 2 yr, Tumor Site: Type of Lesion: Stomach: papilloma and squamous cell carcinoma combined (0, 2, 6, 3). Duodenum: adenomas and carcinomas (0, 4, 17, 25)) was “active; positive”, the carcinogen call (Species: Rat, Strain/Sex: Strain not specified in Department of Pesticides Regulation report /Female (60/Group), Route: Oral, Dose: 0, 200, 800, 3200 ppm of 89.5% folpet in diet for 105 wk, study duration 105 wk, Dose: 0, 200, 800, 3200 ppm of 89.5% folpet in diet for 105 wk, study duration 105 wk) was “inactive; negative” and the carcinogen call (Species: Rat, Strain/Sex: Strain not specified in Department of Pesticides Regulation report /Male (60/Group), Route: Oral, Dose: 0, 200, 800, 3200 ppm of 89.5% folpet in diet for 105 wk, study duration 105 wk, Dose: 0, 200, 800, 3200 ppm of 89.5% folpet in diet for 105 wk, study duration 105 wk) was “inactive; negative. increased incidence of thyroid tumors judged by reviewers as equivocal”.

For `O=[N+]([O-])c1ccc(OC2CO2)cc1` (stereo not drawn), the carcinogen call (Species: MOUSE, Strain/Sex: B6C3F1/MALE, Route: INTRAPERITONEAL, Dose: 0, 60 NMOL/G BW IN 10 µL TRIOCTANOIN ONCE (STUDY DURATION: 10 MO), Tumor Site: Type of Lesion: LIVER: HEPATOMA) was “active; positive”.

For `CC(=O)CN(N=O)C(=O)NCCCl`, the carcinogen call (Species: RAT, Strain/Sex: F344/FEMALE, Route: GAVAGE, Dose: 0, 11.5 MG/ML IN CORN OIL/ETHYL ACETATE (2:1) 2/WK FOR 30 WK (STUDY DURATION: LIFETIME), Tumor Site: Type of Lesion: LIVER: TUMOR) was “active; positive”, the carcinogen call (Species: RAT, Strain/Sex: F344/FEMALE, Route: ORAL, Dose: 0, 46 MG/L IN DRINKING WATER 5 D/WK FOR 30 WK (STUDY DURATION: LIFETIME)) was “inactive; negative” and the carcinogen call (Species: RAT, Strain/Sex: F344/MALE, Route: GAVAGE, Dose: 0, 11.5 MG/ML IN CORN OIL/ETHYL ACETATE (2:1) 2/WK FOR 30 WK (STUDY DURATION: LIFETIME), Tumor Site: Type of Lesion: NERVOUS SYSTEM: TUMOR, SMALL INTESTINE: TUMOR) was “active; positive”. The carcinogen call (Species: RAT, Strain/Sex: F344/MALE, Route: ORAL, Dose: 0, 46 MG/L IN DRINKING WATER 5 D/WK FOR 30 WK (STUDY DURATION: LIFETIME), Tumor Site: Type of Lesion: LUNG: TUMOR, SKIN: TUMOR) was “active; positive”.

In the case of `Cc1c2oc3c(C)ccc(C(=O)N[C@@H]4C(=O)N[C@H](C(C)C)C(=O)N5CCC[C@H]5C(=O)N(C)CC(=O)N(C)[C@@H](C(C)C)C(=O)O[C@@H]4C)c3nc-2c(C(=O)N[C@@H]2C(=O)N[C@H](C(C)C)C(=O)N3CCC[C@H]3C(=O)N(C)CC(=O)N(C)[C@@H](C(C)C)C(=O)O[C@@H]2C)c(N)c1=O` (I: T[dV]P[Sar][NMeV] / II: T[dV]P[Sar][NMeV]; ester I:1-I:C, II:1-II:C; linker I:N-II:N via Actinocin(9to1)), the carcinogen call (Species: RAT, Route: INTRAPERITONEAL, Tumor Site: Type of Lesion: PERITONEAL CAVITY) is reported as “active; positive”.
